The record followed here is patent publication US9181253B2 (The United States of America, as represented by the …, priority 2008, dated 2015).

SMILES strings stand for the structures.

One may read the Ki as the dissociation constant of the complex between target and ligand, obtained from inhibition or displacement. One may read the inhibition as the relative decrease from the control value, in per cent.

One experiment deals with hA3AR (Homo sapiens (Human), UniProt P0DMS8). Briefly: Radioligand membrane binding at hA3AR (Example 6). The conditions noted are these: for Ki: CHO cells expressing hA3AR, [125I]I-AB-MECA, n = 3-5, read-out: Affinity Ki, nM A3.
Sequence of hA3AR (P0DMS8 whole entry): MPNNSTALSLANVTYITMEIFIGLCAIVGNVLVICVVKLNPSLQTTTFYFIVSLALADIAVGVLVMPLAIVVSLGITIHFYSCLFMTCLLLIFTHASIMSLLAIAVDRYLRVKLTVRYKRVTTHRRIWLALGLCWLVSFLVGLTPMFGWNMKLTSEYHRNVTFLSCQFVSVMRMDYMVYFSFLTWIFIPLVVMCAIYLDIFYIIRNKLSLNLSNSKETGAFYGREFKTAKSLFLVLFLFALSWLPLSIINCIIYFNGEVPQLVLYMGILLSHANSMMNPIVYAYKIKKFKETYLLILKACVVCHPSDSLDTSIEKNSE
The target of experiment [1] is T1, hA1AR (Homo sapiens (Human), UniProt P30542). Briefly: A1AR functional assay, inhibition of forskolin-stimulated cyclic AMP production in AR-transfected CHO cells. It is filed as cell-based. To be noted: for inhibition at 10 µM: CHO, read-out: % Inhibition, cyclic AMP A1; for % Inhibition, cyclic AMP A1: maximal efficacy at 10 μM, in comparison to effect (100%) of full agonist CPA at 10 μM, n = 3-5.
T1 sequence (P30542 whole entry): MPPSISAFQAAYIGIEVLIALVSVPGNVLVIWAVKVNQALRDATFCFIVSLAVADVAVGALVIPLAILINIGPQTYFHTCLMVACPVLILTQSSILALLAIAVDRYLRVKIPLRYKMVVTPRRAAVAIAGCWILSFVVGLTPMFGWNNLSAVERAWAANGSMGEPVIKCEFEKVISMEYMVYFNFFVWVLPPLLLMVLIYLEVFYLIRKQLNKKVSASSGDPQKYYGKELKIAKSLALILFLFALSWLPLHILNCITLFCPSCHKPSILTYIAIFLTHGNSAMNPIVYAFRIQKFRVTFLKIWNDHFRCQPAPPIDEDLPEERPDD
Experimental: CHO cells that expressed the recombinant human or rat A3AR or the human A1 or A2BAR were harvested by trypsinization. After centrifugation and resuspended in medium, cells were planted in 24-well plates in 1.0 mL medium. […] The reaction was terminated by removing the supernatant, and cells were lysed upon the addition of 200 μL of 0.1 M ice-cold HCl. The cell lysate was resuspended and stored at −20° C. For determination of cyclic AMP production, protein kinase A (PKA) was incubated with [^3H]cyclic AMP (2 nM) in K2HPO4/EDTA buffer (K2HPO4, 150 mM; EDTA, 10 mM), 20 μL of the cell lysate, and 30 μL 0.1 M HCl or 50 μL of cyclic AMP solution (0-16 pmol/200 μL for standard curve). Bound radioactivity was separated by rapid filtration through Whatman GF/C filters and washed once with cold buffer. Bound radioactivity was measured by liquid scintillation spectrometry.
Intracellular cAMP levels were measured with a competitive protein binding method.

A further experiment concerns the target hA2AAR (Homo sapiens (Human), UniProt P29274). The experiment is described as follows: Radioligand membrane binding at hA2AAR (Example 6). To be noted: for Ki: HEK293 cells expressing hA2AAR, [3H]CGS21680, n = 3-5, read-out: Affinity Ki, nM A2A; for (% inhibition) A2A: percent inhibition of radioligand binding at 10 μM; for inhibition at 10 µM: read-out: (% inhibition) A2A. Here is the method: (§1) In addition, 800 μg/mL Geneticin and 500 μg/mL hygromycin were added to the A2A media and to the A1 and A3 media, respectively. […] The concentration of protein was determined using a BCA Protein Assay Kit from Pierce Biotechnology (Rockford, Ill.).
(§2) Radioligand binding assays at A1, A2A, and A3ARs were performed according to the procedures described previously.
(§3) All of the filters were washed 3 times with Tris-HCl, pH 7.5. […] Filters for A3AR binding were counted using a PerkinElmer Cobra II γ-counter.
(§4) Binding and functional parameters were calculated using Prism 5.0 software (GraphPAD, San Diego, Calif., USA). IC50 values obtained from competition curves were converted to Ki values using the Cheng-Prusoff equation. Data were expressed as mean±standard error.

The target in experiment [2] is T1, hA1AR. Briefly: Radioligand membrane binding at hA1AR (Example 6). To be noted: for Ki: CHO cells expressing hA1AR, [3H]R-PIA, n = 3-5, read-out: Affinity Ki, nM A1; for inhibition at 10 µM: read-out: (% inhibition) A1; for (% inhibition) A1: percent inhibition of radioligand binding at 10 μM. As for the experimental part: as §1, §2, §3, §4

Sequence of hA2AAR (P29274 whole entry): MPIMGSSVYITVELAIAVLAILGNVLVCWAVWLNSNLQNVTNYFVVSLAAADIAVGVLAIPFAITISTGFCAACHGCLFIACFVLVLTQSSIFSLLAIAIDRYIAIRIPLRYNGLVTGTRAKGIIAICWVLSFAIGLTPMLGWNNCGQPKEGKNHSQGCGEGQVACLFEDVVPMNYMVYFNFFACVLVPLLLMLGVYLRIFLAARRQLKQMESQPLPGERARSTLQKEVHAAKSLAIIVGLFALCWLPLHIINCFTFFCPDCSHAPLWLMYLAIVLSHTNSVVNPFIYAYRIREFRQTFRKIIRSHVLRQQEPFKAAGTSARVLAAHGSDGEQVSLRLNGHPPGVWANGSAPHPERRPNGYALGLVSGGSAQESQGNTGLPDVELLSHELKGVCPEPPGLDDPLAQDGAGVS
Experimental for hA3AR: Chinese hamster ovary (CHO) cells stably expressing either the recombinant hA1 or hA3AR and human embryonic kidney (HEK) 293 cells stably expressing the human (h) A2AAR were cultured in DMEM and F12 (1:1), supplemented with 10% fetal bovine serum, 100 units/mL penicillin, 100 μg/mL streptomycin, and 2 μmol/mL glutamine. In addition, 800 μg/mL Geneticin and 500 μg/mL hygromycin were added to the A2A media and to the A1 and A3 media, respectively. […] The concentration of protein was determined using a BCA Protein Assay Kit from Pierce Biotechnology (Rockford, Ill.).
The mixtures were incubated at 25° C. for 60 min. Binding reactions were terminated by filtration through Whatman GF/B filters under a reduced pressure using a MT-24 cell harvester (Brandell, Gaithersburg, Md.). Filters were washed three times with 5 ml of 50 mM ice-cold Tris-HCl buffer (pH 7.5). […] All of the filters were washed 3 times with Tris-HCl, pH 7.5. […] Filters for A3AR binding were counted using a PerkinElmer Cobra II γ-counter.

As for `Nc1nc(Cl)nc2c1ncn2[C@H]1[C@H](O)[C@H](O)[C@@H]2C[C@@H]21` [Compound 107, (1R,2R,3S,4R,5S)-4-(6-Amino-2-chloro-9H-purin-9-yl)-bicyclo[3.1.0]hexane-2,3-diol], the Ki worked out at 160 ± 42 nM at hA3AR, 3140 ± 450 nM at hA2AAR and 350 ± 90 nM at hA1AR [2]. Besides, the inhibition at 10 µM on hA1AR [1] came out at 68.1 ± 4.4%.

As to `O[C@@H]1[C@H](O)[C@@H]2C[C@@H]2[C@H]1n1cnc2c(NC3CC3)nc(Cl)nc21` [Compound 108, (1R,2R,3S,4R,5S)-4-(2-Chloro-6-(cyclopropylamino)-9H-purin-9-yl)bicyclo[3.1.0]hexane-2,3-diol], the Ki was 12.1 ± 3.4 nM at hA3AR, 3700 ± 340 nM at hA2AAR and 210 ± 30 nM on hA1AR [2]. Also, the inhibition at 10 µM at hA1AR [1] is 79 ± 18.8%.

With `O[C@@H]1[C@H](O)[C@@H]2C[C@@H]2[C@H]1n1cnc2c(NC3CCC3)nc(Cl)nc21` [Compound 109, (1R,2R,3S,4R,5S)-4-(2-Chloro-6-(cyclobutylamino)-9H-purin-9-yl)bicyclo[3.1.0]hexane-2,3-diol], the inhibition constant (Ki) was 5.9 ± 0.5 nM at hA3AR, 3020 ± 90 nM at hA2AAR and 51.6 ± 12.6 nM on hA1AR [2].

For the compound `O[C@@H]1[C@H](O)[C@@H]2C[C@@H]2[C@H]1n1cnc2c(NC3CCCCCCC3)nc(Cl)nc21` [Compound 112, (1R,2R,3S,4R,5S)-4-(2-Chloro-6-(cyclooctylamino)-9H-purin-9-yl)bicyclo[3.1.0]hexane-2,3-diol], the values for the Ki at hA3AR and on hA1AR [2] were 1530 ± 60 nM and 760 ± 110 nM, respectively. For the same compound, the inhibition at 10 µM on hA1AR [1] amounted to 40.1 ± 9%.

`CCNc1nc(Cl)nc2c1ncn2[C@H]1[C@H](O)[C@H](O)[C@@H]2C[C@@H]21` [Compound 115, (1R,2R,3S,4R,5S)-4-(2-Chloro-6-(ethylamino)-9H-purin-9-yl)bicyclo[3.1.0]hexane-2,3-diol]: the Ki is 6.6 ± 1.6 nM at hA3AR and 930 ± 110 nM at hA1AR [2]. For the same compound, the “(% inhibition) A2A” value on hA2AAR was “(11%)”.

For the compound `O[C@@H]1[C@H](O)[C@@H]2C[C@@H]2[C@H]1n1cnc2c(NCCCF)nc(Cl)nc21` [Compound 116, (1R,2R,3S,4R,5S)-4-(2-Chloro-6-(3-fluoropropylamino)-9H-purin-9-yl)bicyclo[3.1.0]hexane-2,3-diol], the Ki at hA3AR came out at 32.4 ± 6.7 nM; on hA1AR [2] it was 72.7 ± 28 nM. The inhibition at 10 µM on hA1AR [1] came to 23.2 ± 2.6%.

Take `CC(Nc1nc(Cl)nc2c1ncn2[C@H]1[C@H](O)[C@H](O)[C@@H]2C[C@@H]21)C1CC1` (stereo partly drawn) [Compound 120, (1R,2R,3S,4R,5S)-4-(2-Chloro-6-(1-cyclopropylethylamino)-9H-purin-9-yl)bicyclo[3.1.0]hexane-2,3-diol]: the Ki was 110 ± 17 nM at hA3AR and 86.8 ± 23.7 nM at hA1AR [2]. At hA2AAR, the “(% inhibition) A2A” value is reported as “(41%)”.

As for `O[C@@H]1[C@H](O)[C@@H]2C[C@@H]2[C@H]1n1cnc2c(NCc3ccccc3F)nc(Cl)nc21` [Compound 122, (1R,2R,3S,4R,5S)-4-(2-Chloro-6-(2-fluorobenzylamino)-9H-purin-9-yl)bicyclo[3.1.0]hexane-2,3-diol], the Ki worked out at 41.5 ± 1 nM on hA3AR and 4790 ± 670 nM on hA1AR [2].

In the case of `O[C@@H]1[C@H](O)[C@@H]2C[C@@H]2[C@H]1n1cnc2c(NCc3ccccc3OCCF)nc(Cl)nc21` [Compound 123, (1R,2R,3S,4R,5S)-4-(2-chloro-6-(2-(2-fluoroethoxy)benzylamino)-9H-purin-9-yl)bicyclo[3.1.0]hexane-2,3-diol], the Ki at hA3AR worked out at 10.3 ± 1.5 nM.

For `O[C@@H]1[C@H](O)[C@@H]2C[C@@H]2[C@H]1n1cnc2c(NCc3cccc(OCCF)c3)nc(Cl)nc21` [Compound 124, (1R,2R,3S,4R,5S)-4-(2-chloro-6-(3-(2-fluoroethoxy)benzylamino)-9H-purin-9-yl)bicyclo[3.1.0]hexane-2,3-diol], at hA3AR, the Ki stood at 15.2 ± 3 nM. Besides, the results for the inhibition at 10 µM on hA2AAR and at hA1AR [2] were 32% and 34%, respectively.

With `O[C@@H]1[C@H](O)[C@@H]2C[C@@H]2[C@H]1n1cnc2c(NCc3cc(F)ccc3F)nc(Cl)nc21` [Compound 125, (1R,2R,3S,4R,5S)-4-(2-chloro-6-(2,5-difluorobenzylamino)-9H-purin-9-yl)bicyclo[3.1.0]hexane-2,3-diol], the Ki at hA3AR was found to be 114 ± 45 nM; at hA1AR [2], 3580 ± 220 nM. At hA2AAR, the inhibition at 10 µM turned out to be 46%.

As for `COc1ccc(F)c(F)c1CNc1nc(Cl)nc2c1ncn2[C@H]1[C@H](O)[C@H](O)[C@@H]2C[C@@H]21` [Compound 126, (1R,2R,3S,4R,5S)-4-(2-chloro-6-(2,3-difluoro-6-methoxybenzylamino)-9H-purin-9-yl)bicyclo[3.1.0]hexane-2,3-diol], the Ki on hA3AR turned out to be 16.5 ± 2.8 nM; on hA1AR [2], 1260 ± 240 nM. Further, the inhibition at 10 µM at hA2AAR amounted to 38%.

As for `COc1cc(F)c(F)cc1CNc1nc(Cl)nc2c1ncn2[C@H]1[C@H](O)[C@H](O)[C@@H]2C[C@@H]21` [Compound 127, (1R,2R,3S,4R,5S)-4-(2-chloro-6-(4,5-difluoro-2-methoxybenzylamino)-9H-purin-9-yl)bicyclo[3.1.0]hexane-2,3-diol], the Ki on hA3AR stood at 83.2 ± 35.7 nM. Also, the figures for the inhibition at 10 µM on hA2AAR and at hA1AR [2] were 30% and 41%, respectively.

For `OCc1cc(F)c(F)cc1CNc1nc(Cl)nc2c1ncn2[C@@]12C[C@H](O)[C@H](O)[C@@H]1C2` [Compound 128], the Ki was 40.4 ± 13.1 nM at hA3AR, 7510 ± 690 nM on hA2AAR and 1910 ± 310 nM at hA1AR [2].

In the case of `O[C@@H]1[C@H](O)[C@@H]2C[C@@H]2[C@H]1n1cnc2c(NCC(C3CC3)C3CC3)nc(Cl)nc21` [Compound 207, (1R,2R,3S,4R,5S)-4-(2-Chloro-6-(2,2-dicyclopropylethylamino)-9H-purin-9-yl)bicyclo[3.1.0]hexane-2,3-diol], the values for the Ki at hA3AR and on hA1AR [2] were 670 ± 10 nM and 780 ± 100 nM, respectively. The inhibition at 10 µM at hA1AR [1] is -9 ± 4.1%.

`O[C@@H]1[C@H](O)[C@@H]2C[C@@H]2[C@H]1n1cnc2c(NC(C3CCCC3)C3CCCC3)nc(Cl)nc21` [Compound 211, (1R,2R,3S,4R,55)-4-(2-Chloro-6-(dicyclopentylmethylamino)-9H-purin-9-yl)bicyclo[3.1.0]hexane-2,3-diol]: the “(% inhibition) A3” value on hA3AR (percent inhibition of radioligand binding at 10 μM) was “(48 ± 2%)”. For the same compound, the “(% inhibition) A2A” value at hA2AAR was “(13 ± 3%)”. Also, the “(% inhibition) A1” value on hA1AR [2] is “(34 ± 3%)”.

For the compound `O[C@@H]1[C@H](O)[C@@H]2C[C@@H]2[C@H]1n1cnc2c(N[C@@H](c3ccccc3)C3CC3)nc(Cl)nc21` [Compound 220, (1R,2R,3S,4R,5S)-4-(2-Chloro-6-((R)-cyclopropylphenylmethylamino)-9H-purin-9-yl)bicyclo[3.1.0]hexane-2,3-diol], at hA1AR [1], the “% Inhibition, cyclic AMP A1” value is listed as −7.4 ± 6.0%. Besides, the “(% inhibition) A2A” value at hA2AAR was “(46 ± 4%)”. For the same compound, the Ki at hA1AR [2] came to 3000 ± 440 nM.

On to `O[C@@H]1[C@H](O)[C@@H]2C[C@@H]2[C@H]1n1cnc2c(N[C@H](c3ccccc3)C3CC3)nc(Cl)nc21` [Compound 221, (1R,2R,3S,4R,5S)-4-(2-Chloro-6-((S)-cyclopropylphenylmethylamino)-9H-purin-9-yl)bicyclo[3.1.0]hexane-2,3-diol], for which the “% Inhibition, cyclic AMP A1” value at hA1AR [1] is reported as −2.4 ± 3.7%. The “(% inhibition) A2A” value at hA2AAR is on record as “(36 ± 4%)”. For the same compound, the “(% inhibition) A1” value at hA1AR [2] is on record as “(50 ± 5%)”.

With `OC[C@H]1O[C@@H](n2cnc3c(NC4CCCC4)ncnc32)[C@H](O)[C@@H]1O` [Compound 235a, N^6-cyclopentyladenosine, reference compound], the “% Inhibition, cyclic AMP A1” value on hA1AR [1] worked out at 100 ± 2.6%.
